From patent publication US20180064153A1, “Methods of Protecting Against Brain Injury” (priority 2016, published 2018)
Where two headings read alike, the source gives them in different places.

Tests used:
histidine = conditions: for Brain Histidine Concentration: mean ± SD
[1] = test system: rats exposed to a low-pressure blast wave; conditions: 1 h following blast
Description: Neurological assessment using the neurological severity score (NSS) was performed one hour following the blast and daily thereafter. […] The NSS was performed 1-h following the initial blast wave exposure. NSS assesses somatomotor and somatosensory function by evaluating the animals' activities in motor, sensory, reflexes, beam walking, and beam balancing tasks. Specifically, the following were assessed: ability to exit from a circle (3-point scale), gait on a wide surface (3-point scale), gait on a narrow surface (4-point scale), effort to remain on a narrow surface (2-point scale), reflexes (5-point scale), seeking behavior (2-point scale), beam walking (3-point scale), and beam balance (3- point scale). An observer, who was blind to the different treatment groups, tested the animals.

neuropeptide Y (NPY) = conditions: day 16 post-blast
[2] = test system: brain-derived neurotrophic factor (BDNF); conditions: day 16 post-blast
tau protein = conditions: day 16 post-blast; for Tau protein expression, CTL compared with BA: p<0.001
carnosine = conditions: for Brain Carnosine Concentration: mean ± SD
[3] = individuals taking β-alanine as a free amino acid; cited from earlier work
[4] = test system: rats exposed to a low-pressure blast wave; conditions: 30 days supplementation
[5] = test system: glial fibrillary acidic protein (GFAP); conditions: day 16 post-blast

In the case of `NCCC(=O)O` [BA, beta-alanine], the “Brain Histidine Concentration” value (histidine; Amygdala) is reported as 2619 ± 1467 mM, the “Brain Histidine Concentration” value (histidine; Cortex) is reported as 5669 ± 4471 mM and the “Brain Histidine Concentration” value (histidine; Hippocampus) is reported as 5632 ± 4995 mM. For the same compound, the “Brain Histidine Concentration” value (histidine; Hypothalamus) was 1862 ± 1794 mM, the “Brain Histidine Concentration” value (histidine; Thalamus) was 26025 ± 21754 mM and the “histidine content higher than PL” value (histidine; across the five regions of the brain) was 86%. For the same compound, the “histidine content, BA compared to PL” value (histidine; cerebral cortex, p=0.070) was “Trends towards a higher histidine content”, the “histidine content, BA compared to PL” value (histidine; hippocampus, p=0.053) was “Trends towards a higher histidine content” and the “histidine content, BA compared to PL” value (histidine; thalamus, p=0.108) was “Trends towards a higher histidine content”. The “NSS: reflex responses, motor coordination, motor strength, sensory function, BA vs PL” value [1] was “No significant differences”, the “NPY expression, CTL compared with BA” value (neuropeptide Y (NPY); CA1 subregion, p=0.011) was “significantly higher” and the “NPY expression, BA compared with PL” value (neuropeptide Y (NPY); CA1 subregion, p=0.196) was “No significant differences”. For the same compound, the “NPY expression, CTL compared with BA” value (neuropeptide Y (NPY); CA3 subregion, p=0.032) was “significantly greater”, the “NPY expression, BA compared with PL” value (neuropeptide Y (NPY); CA3 subregion, p=0.480) was “no differences” and the “NPY expression, CTL compared with BA” value (neuropeptide Y (NPY); DG subregion, p=0.011) was “significantly greater”. The “NPY expression, BA compared with PL” value (neuropeptide Y (NPY); DG subregion, p=0.074) was “trended (p=0.074) towards a higher response”, the “BDNF expression, BA compared with PL” value ([2]; CA1 subregion, p=0.009) was “significantly higher” and the “BDNF expression, CTL compared with BA” value ([2]; CA1 subregion, p=0.025) was “significantly higher”. For the same compound, the “BDNF expression, CTL compared with BA” value ([2]; CA3 subregion, p=0.005) was “significantly greater”, the “BDNF expression, BA compared with PL” value ([2]; CA3 subregion, p=0.110) was “No difference” and the “BDNF expression, CTL compared with BA” value ([2]; DG subregion, p=0.005) was “significantly greater”. The “BDNF expression, BA compared with PL” value ([2]; DG subregion, p=0.136) was “no differences”, the “Tau protein expression, CTL compared with BA” value (tau protein; CA1 subregion) was “significantly lower” and the “Tau protein expression, BA compared with PL” value (tau protein; CA1 subregion, p=0.700) was “No significant differences”. For the same compound, the “Tau protein expression, CTL compared with BA” value (tau protein; CA3 subregion) was “significantly lower”, the “Tau protein expression, BA compared with PL” value (tau protein; CA3 subregion, p=1.000) was “no differences” and the “Tau protein expression, CTL compared with BA” value (tau protein; DG subregion) was “significantly lower”. For the same compound, the “Tau protein expression, BA compared with PL” value (tau protein; DG subregion, p=0.557) was “no differences observed”, the “Brain Carnosine Concentration” value (carnosine; Amygdala) was 23.2 ± 18.4 mM and the “Brain Carnosine Concentration” value (carnosine; Cortex) was 364 ± 178 mM. The “Brain Carnosine Concentration” value (carnosine; Hippocampus) was 22.4 ± 11.3 mM, the “Brain Carnosine Concentration” value (carnosine; Hypothalamus) was 22.7 ± 26.2 mM and the “Brain Carnosine Concentration” value (carnosine; Thalamus) was 50.9 ± 33.9 mM. For the same compound, the “carnosine content, BA compared to PL” value (carnosine; amygdala, p=0.061) was “Trends towards a difference”, the “carnosine content higher than in animals that consumed the vehicle” value (carnosine; average across the five brain regions) was 79% and the “carnosine content, BA compared to PL” value (carnosine; cerebral cortex, p=0.048) was “significantly higher”. The “carnosine content, BA compared to PL” value (carnosine; hippocampus, p=0.058) was “Trends towards a difference”, the “duration of flushing/tingling (paraesthesia) of the skin” value [3] was “less than 60 minutes” and the “prevalence of animals demonstrating the comorbid pattern of mTBI+PTSD” value ([4]; 2/49) was 4%. The “prevalence of PTSD” value ([4]; 5/49) was 10.2%, the “prevalence of animals demonstrating mTBI” value ([4]; 13/49) was 26.5% and the “GFAP expression, PL compared with BA” value ([5]; CA1 subregion, p=0.001) was “significantly greater”. For the same compound, the “GFAP expression, CTL compared with BA” value ([5]; CA1 subregion, p=0.126) was “No differences”, the “GFAP expression, PL compared with BA” value ([5]; CA3 subregion, p=0.021) was “significantly greater” and the “GFAP expression, BA compared with CTL” value ([5]; CA3 subregion, p=0.876) was “no differences”. For the same compound, the “GFAP expression, comparison between BA, PL and CTL” value ([5]; DG subregion, ANOVA p=0.387) was “no difference”.
